These results are taken from US10053463B2 (Janssen Pharmaceutica NV, priority 2013, dated 2018).

For one experiment, the target named is P2X7 (Homo sapiens (Human), UniProt Q99572). In words: P2X7 antagonism in human peripheral blood mononuclear cells (PBMCs), IL-1β release. In kind it is cell-based. The following applies: P2X7; Table 3 (additional runs); 10 μM compound; read-out: PBMC 10 μM (% control). The protocol: P2X7 Antagonism in Human Peripheral Blood Mononuclear Cells (PBMCs) and Human Whole Blood.
Chain of P2X7 (Q99572 whole entry): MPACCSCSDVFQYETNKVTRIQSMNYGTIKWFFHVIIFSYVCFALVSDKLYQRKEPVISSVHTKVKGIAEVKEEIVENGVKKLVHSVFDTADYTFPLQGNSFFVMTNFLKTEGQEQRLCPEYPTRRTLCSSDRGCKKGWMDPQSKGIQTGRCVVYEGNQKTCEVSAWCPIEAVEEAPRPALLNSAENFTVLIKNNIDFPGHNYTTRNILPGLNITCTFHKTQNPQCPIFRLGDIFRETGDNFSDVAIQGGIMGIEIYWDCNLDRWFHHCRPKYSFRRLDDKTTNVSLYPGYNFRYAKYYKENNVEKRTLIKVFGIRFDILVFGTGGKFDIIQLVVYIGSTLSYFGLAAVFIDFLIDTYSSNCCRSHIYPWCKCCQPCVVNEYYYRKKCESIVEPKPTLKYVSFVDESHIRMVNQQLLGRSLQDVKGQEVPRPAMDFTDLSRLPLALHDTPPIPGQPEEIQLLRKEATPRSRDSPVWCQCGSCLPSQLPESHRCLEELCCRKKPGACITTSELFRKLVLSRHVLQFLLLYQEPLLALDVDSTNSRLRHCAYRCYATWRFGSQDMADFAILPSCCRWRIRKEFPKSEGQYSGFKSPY
Human blood was collected using a blood donor program. PBMCs were isolated from blood using a Ficoll density gradient technique. Briefly, blood was laid on Ficoll solution and centrifuged at RT for 20 minutes at 2000 rpm. The buffy layer (between red blood cells and plasma) was carefully collected by aspiration, washed with PBS and centrifuged again at 1500 rpm for 15 minutes. The resulting cell pellet was washed and plated on 96 well-plates for experiments. For the Human Whole Blood experiments, 150 μl of human blood was platted on 96 well-plates. Lipopolysaccharide (LPS) (30 ng/ml) was added to each well and incubated for 1 hour. Test compounds were then added and incubated for 30 minutes. The P2X7 agonist, 2′(3′)-O-(4-benzoylbenzoyl) adenosine 5′-triphosphate (Bz-ATP) was then added at a final concentration of 0.5 mM (PBMC) or 1 mM (blood). Cells were incubated for an additional 1.5 hours. At that point, supernatant was collected and stored for IL-1β assay using manufacturer's protocol for enzyme-linked immunosorbent assay (ELISA). Data was expressed as percent control, where control is defined as the difference in IL-1β release in LPS+Bz-ATP samples and LPS only samples. Data was plotted as response (% control) versus concentration to generate IC50 values. […] Data are analyzed and graphed on Graphpad Prism 5. For analysis, each concentration point is averaged from triplicate values and the averaged values are plotted on Graphpad Prism.
With `CC(c1cccc(C(F)(F)F)c1Cl)N1CCn2c(nnc2-c2cnccn2)C1=O` (racemic) [Example 4, (±)7-{1-[2-Chloro-3-(trifluoromethyl)phenyl]ethyl}-3-pyrazin-2-yl-6,7-dihydro[1,2,4]triazolo[4,3-a]pyrazin-8(5H)-one], the remaining activity at 10 µM was 46%.

On to `CC1Cn2c(nnc2-c2cnccn2)C(=O)N1Cc1cccc(Cl)c1Cl` (racemic) [Example 11, (±)-7-(2,3-Dichlorobenzyl)-6-methyl-3-pyrazin-2-yl-6,7-dihydro[1,2,4]triazolo[4,3-a]pyrazin-8(5H)-one], for which the remaining activity at 10 µM was -0.4%.

Turning to `CC1Cn2c(nnc2-c2cnccn2)C(=O)N1Cc1cccc(C(F)(F)F)c1Cl` (racemic) [Example 14, (±)-7-[2-Chloro-3-(trifluoromethyl)benzyl]-6-methyl-3-pyrazin-2-yl-6,7-dihydro[1,2,4]triazolo[4,3-a]pyrazin-8(5H)-one], the remaining activity at 10 µM is 2.5%.

In the case of `O=C1c2nnc(-c3cnccn3)n2CC(C2CC2)N1Cc1cccc(C(F)(F)F)c1Cl` (racemic) [Example 61, (±)-7-[2-Chloro-3-(trifluoromethyl)benzyl]-6-cyclopropyl-3-pyrazin-2-yl-6,7-dihydro[1,2,4]triazolo[4,3-a]pyrazin-8(5H)-one], the remaining activity at 10 µM is -1%.

In the case of `O=C1c2nnc(-c3ncccn3)n2CC(C2CC2)N1Cc1cccc(C(F)(F)F)c1Cl` (racemic) [Example 64, (±)-7-[2-Chloro-3-(trifluoromethyl)benzyl]-6-cyclopropyl-3-pyrimidin-2-yl-6,7-dihydro[1,2,4]triazolo[4,3-a]pyrazin-8(5H)-one], the remaining activity at 10 µM is -0.4%.

In the case of `O=C1c2nnc(-c3cccnc3)n2CC(C2CC2)N1Cc1cccc(C(F)(F)F)c1Cl` (racemic) [Example 67, (±)-7-[2-Chloro-3-(trifluoromethyl)benzyl]-6-cyclopropyl-3-pyridin-3-yl-6,7-dihydro[1,2,4]triazolo[4,3-a]pyrazin-8(5H)-one], the remaining activity at 10 µM came out at 6.9%.

With `O=C1c2nnc(-c3cc[nH]n3)n2CC(C2CC2)N1Cc1cccc(C(F)(F)F)c1Cl` (racemic) [Example 68, (±)-7-[2-Chloro-3-(trifluoromethyl)benzyl]-6-cyclopropyl-3-(1H-pyrazol-3-yl)-6,7-dihydro[1,2,4]triazolo[4,3-a]pyrazin-8(5H)-one], the remaining activity at 10 µM came out at 1.6%.

With `O=C1c2nnc(-c3ccc(F)cn3)n2CC(C2CC2)N1Cc1cccc(C(F)(F)F)c1Cl` (racemic) [Example 69, (±)-7-[2-Chloro-3-(trifluoromethyl)benzyl]-6-cyclopropyl-3-(5-fluoropyridin-2-yl)-6,7-dihydro[1,2,4]triazolo[4,3-a]pyrazin-8(5H)-one], the remaining activity at 10 µM came out at 20.8%.

Consider `O=C1c2nnc(-c3ncc(F)cn3)n2CC(C2CC2)N1Cc1cccc(C(F)(F)F)c1Cl` (racemic) [Example 70, (±)-7-[2-Chloro-3-(trifluoromethyl)benzyl]-6-cyclopropyl-3-(5-fluoropyrimidin-2-yl)-6,7-dihydro[1,2,4]triazolo[4,3-a]pyrazin-8(5H)-one], for which the remaining activity at 10 µM amounted to 9.1%.

For the molecule `C[C@H](c1ccccc1)N1C(=O)c2nnc(-c3cnccn3)n2C[C@@H]1C` (relative stereo) [Example 94, (6S)-6-Methyl-7[(1R*)-1-phenylethyl]-3-pyrazin-2-yl-6,7-dihydro[1,2,4]triazolo[4,3-a]pyrazin-8(5H)-one], the remaining activity at 10 µM is -1.3%.

In the case of `C[C@H]1Cn2c(nnc2-c2cnccn2)C(=O)N1[C@@H](C)c1ccccc1` (relative stereo) [Example 95, (6S)-6-Methyl-7-[(1S*)-1-phenylethyl]-3-pyrazin-2-yl-6,7-dihydro[1,2,4]triazolo[4,3-a]pyrazin-8(5H)-one], the remaining activity at 10 µM stood at 3.1%.

As for `O=C1c2nnc(-c3ccc(F)cc3)n2CCN1Cc1cccc(C(F)(F)F)c1Cl` [Example 1, 7-[2-Chloro-3-(trifluoromethyl)benzyl]-3-(4-fluorophenyl)-6,7-dihydro[1,2,4]triazolo[4,3-a]pyrazin-8(5H)-one], the remaining activity at 10 µM amounted to 25.4%.

`O=C1c2nnc(-c3cnccn3)n2CCN1Cc1c(Cl)cccc1Cl` [Example 5, 7-(2,6-Dichlorobenzyl)-3-pyrazin-2-yl-6,7-dihydro[1,2,4]triazolo[4,3-a]pyrazin-8(5H)-one]: the remaining activity at 10 µM is 8.8%.

`O=C1c2nnc(-c3cnccn3)n2CCN1Cc1cccc(F)c1F` [Example 6, 7-(2,3-Difluorobenzyl)-3-pyrazin-2-yl-6,7-dihydro[1,2,4]triazolo[4,3-a]pyrazin-8(5H)-one]: the remaining activity at 10 µM turned out to be 23.7%.

As to `CS(=O)(=O)c1cc(Cl)ccc1CN1CCn2c(nnc2-c2cnccn2)C1=O` [Example 7, 7-[4-Chloro-2-(methylsulfonyl)benzyl]-3-pyrazin-2-yl-6,7-dihydro[1,2,4]triazolo[4,3-a]pyrazin-8(5H)-one], the remaining activity at 10 µM worked out at 8.8%.

Take `O=C1c2nnc(-c3ccccn3)n2CCN1Cc1cccc(Cl)c1Cl` [Example 8, 7-(2,3-Dichlorobenzyl)-3-pyridin-2-yl-6,7-dihydro[1,2,4]triazolo[4,3-a]pyrazin-8(5H)-one]: the remaining activity at 10 µM was -10.6%.

As to `O=C1c2nnc(-c3ccccn3)n2CCN1Cc1cccc(C(F)(F)F)c1Cl` [Example 9, 7-[2-Chloro-3-(trifluoromethyl)benzyl]-3-pyridin-2-yl-6,7-dihydro[1,2,4]triazolo[4,3-a]pyrazin-8(5H)-one], the remaining activity at 10 µM is -3.1%.

`Cc1c(CN2CCn3c(nnc3-c3ccccn3)C2=O)cccc1C(F)(F)F` [Example 10, 7-[2-Methyl-3-(trifluoromethyl)benzyl]-3-pyridin-2-yl-6,7-dihydro[1,2,4]triazolo[4,3-a]pyrazin-8(5H)-one]: the remaining activity at 10 µM was 59.3%.

Consider `C[C@H]1Cn2c(nnc2-c2cnccn2)C(=O)N1Cc1cccc(Cl)c1Cl` [Example 13, (6S)-7-(2,3-Dichlorobenzyl)-6-methyl-3-pyrazin-2-yl-6,7-dihydro[1,2,4]triazolo[4,3-a]pyrazin-8(5H)-one], for which the remaining activity at 10 µM was 8.2%.

As to `C[C@@H]1Cn2c(nnc2-c2cnccn2)C(=O)N1Cc1cccc(C(F)(F)F)c1Cl` [Example 15, (6R)-7-[2-Chloro-3-(trifluoromethyl)benzyl]-6-methyl-3-pyrazin-2-yl-6,7-dihydro[1,2,4]triazolo[4,3-a]pyrazin-8(5H)-one], the remaining activity at 10 µM is 4.1%.

Take `C[C@H]1Cn2c(nnc2-c2cnccn2)C(=O)N1Cc1cccc(C(F)(F)F)c1Cl` [Example 16, (6S)-7-[2-Chloro-3-(trifluoromethyl)benzyl]-6-methyl-3-pyrazin-2-yl-6,7-dihydro[1,2,4]triazolo[4,3-a]pyrazin-8(5H)-one]: the remaining activity at 10 µM came out at 8.4%.

For `C[C@H]1Cn2c(nnc2-c2ccc(F)cc2)C(=O)N1Cc1cccc(C(F)(F)F)c1Cl` [Example 17, (6S)-7-[2-Chloro-3-(trifluoromethyl)benzyl]-3-(4-fluorophenyl)-6-methyl-6,7-dihydro[1,2,4]triazolo[4,3-a]pyrazin-8(5H)-one], the remaining activity at 10 µM was found to be 2%.

Regarding `C[C@H]1Cn2c(nnc2-c2ccccn2)C(=O)N1Cc1cccc(C(F)(F)F)c1Cl` [Example 18, (6S)-7-[2-Chloro-3-(trifluoromethyl)benzyl]-6-methyl-3-pyridin-2-yl-6,7-dihydro[1,2,4]triazolo[4,3-a]pyrazin-8(5H)-one], the remaining activity at 10 µM was -6.2%.

Turning to `Cc1cnc(-c2nnc3n2C[C@H](C)N(Cc2cccc(C(F)(F)F)c2Cl)C3=O)cn1` [Example 19, (6S)-7-[2-Chloro-3-(trifluoromethyl)benzyl]-6-methyl-3-(5-methylpyrazin-2-yl)-6,7-dihydro[1,2,4]triazolo[4,3-a]pyrazin-8(5H)-one], the remaining activity at 10 µM is -9.5%.

For `C[C@H]1Cn2c(nnc2-c2ncco2)C(=O)N1Cc1cccc(C(F)(F)F)c1Cl` [Example 20, (6S)-7-[2-Chloro-3-(trifluoromethyl)benzyl]-6-methyl-3-(1,3-oxazol-2-yl)-6,7-dihydro[1,2,4]triazolo[4,3-a]pyrazin-8(5H)-one], the remaining activity at 10 µM came out at 4.7%.

For the molecule `C[C@H]1Cn2c(nnc2-c2cocn2)C(=O)N1Cc1cccc(C(F)(F)F)c1Cl` [Example 21, (6S)-7-[2-Chloro-3-(trifluoromethyl)benzyl]-6-methyl-3-(1,3-oxazol-4-yl)-6,7-dihydro[1,2,4]triazolo[4,3-a]pyrazin-8(5H)-one], the remaining activity at 10 µM was -3.4%.

For the molecule `C[C@H]1Cn2c(nnc2-c2cnco2)C(=O)N1Cc1cccc(C(F)(F)F)c1Cl` [Example 22, (6S)-7-[2-Chloro-3-(trifluoromethyl)benzyl]-6-methyl-3-(1,3-oxazol-5-yl)-6,7-dihydro[1,2,4]triazolo[4,3-a]pyrazin-8(5H)-one], the remaining activity at 10 µM is -3.9%.

Staying with this experiment, now noted: Table 2; 10 μM compound; IL-1β release, LPS + 0.5 mM Bz-ATP.
With `C[C@H]1Cn2c(nnc2-c2cnccn2)C(=O)N1Cc1cccc(Cl)c1Cl` [Example 13, (6S)-7-(2,3-Dichlorobenzyl)-6-methyl-3-pyrazin-2-yl-6,7-dihydro[1,2,4]triazolo[4,3-a]pyrazin-8(5H)-one], the “PBMC 10 μM (% control)” value came to 15.4 % control.

As for `C[C@H]1Cn2c(nnc2-c2cnccn2)C(=O)N1Cc1cccc(C(F)(F)F)c1Cl` [Example 16, (6S)-7-[2-Chloro-3-(trifluoromethyl)benzyl]-6-methyl-3-pyrazin-2-yl-6,7-dihydro[1,2,4]triazolo[4,3-a]pyrazin-8(5H)-one], the “PBMC 10 μM (% control)” value worked out at 13.4 % control.

Still in this experiment, the particulars now being: Table 3 (additional runs); 1 μM compound.
As to `O=C1c2nnc(-c3cnccn3)n2CCN1Cc1cccc(C(F)(F)F)c1Cl` [Example 3, 7-[2-Chloro-3-(trifluoromethyl)benzyl]-3-pyrazin-2-yl-6,7-dihydro[1,2,4]triazolo[4,3-a]pyrazin-8(5H)-one], the “PBMC 1 μM (% control)” value is −0.6 % control.
